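These data come from cells grown in 96-well plates and exposed to compound for 48 hours at five concentrations. GI50 marks 50% less growth. TGI is the concentration that stops growth completely.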
Key:
Test in all cases: NCI-60 cell line screen, 48 h
TK-10 renal = system: TK-10 renal
HCT-15 colon = system: HCT-15 colon
HS 578T breast = system: HS 578T breast
SN12C renal = system: SN12C renal
LOX IMVI melanoma = system: LOX IMVI melanoma
RPMI-8226 leukemia = system: RPMI-8226 leukemia
COLO 205 colon = system: COLO 205 colon
IGROV1 ovarian = system: IGROV1 ovarian
SNB-75 CNS = system: SNB-75 CNS
HOP-92 NSCLC = system: HOP-92 NSCLC

SMILES	TGI (TK-10 renal)	TGI (HCT-15 colon)	TGI (HS 578T breast)	TGI (SN12C renal)	TGI (LOX IMVI melanoma)	TGI (RPMI-8226 leukemia)	TGI (COLO 205 colon)	TGI (IGROV1 ovarian)	TGI (SNB-75 CNS)	TGI (HOP-92 NSCLC)	GI50 (LOX IMVI melanoma)	GI50 (IGROV1 ovarian)	GI50 (SNB-75 CNS)
COC(=O)CCCC(=O)NC1=C(NCc2ccccc2)C(=O)c2ccccc2C1=O	> 100 µM	> 100 µM	> 100 µM	> 100 µM	> 100 µM	> 100 µM	> 100 µM	> 100 µM	> 100 µM				
O=C(c1ccco1)N(C(=S)OC12CC3CC(CC(C3)C1)C2)c1ccccc1	> 100 µM	> 100 µM	98 µM	62.8 µM	86.2 µM		32.4 µM		> 100 µM	> 100 µM			
COC1(OC)c2no[n+]([O-])c2C(OC)(OC)c2c1no[n+]2[O-]	31.5 µM	67.4 µM	97.7 µM	54 µM	33.5 µM	87.8 µM	28.5 µM	51 µM	83.3 µM				
C=CC1CN2CCC1CC2C(O)c1ccnc2ccccc12 (stereo not drawn)	> 100 µM	> 100 µM		> 100 µM	> 100 µM		> 100 µM	> 100 µM	> 100 µM		> 100 µM	> 100 µM	> 100 µM
CC(=O)OC1CC2C(=O)C(=O)C1(C)C2(C)C (stereo not drawn)	> 100 µM	> 100 µM		> 100 µM		> 100 µM	> 100 µM	> 100 µM	> 100 µM	> 100 µM			
C=C(C)[C@@H]1CC[C@]2(C(=O)O)CC[C@]3(C)[C@H](CCC4[C@@]5(C)CC[C@H](C(=O)/C=C/c6ccc(O)c(O)c6)C(C)(C)[C@@H]5CC[C@]43C)[C@@H]12 (stereo partly drawn)	39.9 µM	26.8 µM	46.2 µM		> 100 µM		13.8 µM	> 100 µM	> 100 µM				
O=C(NNCc1ccc(Cl)cc1)Nc1cccc2ccccc12	> 100 µM	> 100 µM		> 100 µM	> 100 µM	84.4 µM	> 100 µM	> 100 µM	> 100 µM	> 100 µM			
CC(=O)CC(=O)CCC(=O)O	> 100 µM	> 100 µM		> 100 µM	> 100 µM		> 100 µM	> 100 µM					
C#CCC1(C(=O)OCC)C(=O)c2ccccc2N(C)C1=O (stereo not drawn)	> 100 µM	> 100 µM		> 100 µM	> 100 µM	> 100 µM	> 100 µM	> 100 µM	> 100 µM	> 100 µM			
CC(=O)/C(=C\c1ccc(Cl)c(Cl)c1)C(=O)C(C)CN(C)C (stereo not drawn)	5.82 µM	10.1 µM		20.6 µM	6.14 µM	3.63 µM	24.4 µM	4.88 µM		9.55 µM			
COc1ccc2nc3n(c2c1)CCc1cc(OC)c(OC)cc1-3	> 100 µM	> 100 µM	> 100 µM	> 100 µM	> 100 µM		90.8 µM		> 100 µM	> 100 µM			
CCOC(=O)c1cn(C)c(=S)n2c1nc1ccccc12		> 100 µM		> 100 µM	> 100 µM	95.6 µM	> 100 µM	> 100 µM	> 100 µM	> 100 µM			
CC(C)(C)C1CC[C@H](O)[C@H]([C@H](O)CC2CC(=O)N(c3ccccc3)C(=O)C2)C1 (stereo partly drawn)	> 100 µM	> 100 µM	> 100 µM	> 100 µM	> 100 µM			> 100 µM	> 100 µM	> 100 µM			
CCN(CC)CCN(C(=O)C(C)(C)C)c1ccccc1N	> 100 µM	> 100 µM		> 100 µM		> 100 µM		> 100 µM	> 100 µM	> 100 µM			
CC1(C2CCC3(C)OC3C2)CO1 (stereo not drawn)	> 100 µM			> 100 µM	> 100 µM	> 100 µM	> 100 µM	> 100 µM	> 100 µM	> 100 µM			
O=C(CC1Sc2ccccc2NC1=O)Nc1ccc(Cl)cc1 (stereo not drawn)	> 100 µM	> 100 µM		> 100 µM	> 100 µM	> 100 µM	> 100 µM	> 100 µM	> 100 µM	67.2 µM			
Cc1ccc(S(=O)(=O)n2cc(C#N)c(C#N)c2)cc1	> 100 µM	59 µM	61.4 µM	69.1 µM	52.1 µM		68.2 µM	> 100 µM	> 100 µM	88 µM			
CC1CC/C(=C\c2ccc(Cl)cc2)c2nc(N)c(C#N)c(-c3ccc(Cl)cc3)c21 (stereo not drawn)	> 100 µM	> 100 µM		> 100 µM	> 100 µM	> 100 µM	> 100 µM	> 100 µM	> 100 µM				
Cn1c2ccccc2n2c3ncccc3c(=S)c(C#N)c12		> 100 µM	> 100 µM	> 100 µM	> 100 µM	> 100 µM	> 100 µM	> 100 µM	> 100 µM				
COC(=O)C1=C(O)C(C(=O)OC)[C@]2(O)[C@H](C(=O)OC)[C@H]1C[C@@H](c1ccc([N+](=O)[O-])cc1)[C@H]2C(=O)OC (stereo partly drawn)	> 100 µM	38.6 µM		47.7 µM	32 µM		65.2 µM	30.5 µM	> 100 µM				
